In US6113896A, “Pharmaceutical compositions containing ecotin and homologs thereof” (priority 1994, dated 2000):

Experiments:
normal human plasma = test: Activated partial thromboplastin time (APTT) clotting assay; assay type: biochemical; settings: ellagic acid
Description: For the activated partial thromboplastin time (APTT) assays, the activation time was set at 120 sec and acquisition time at 300 to 600 sec depending on the expected outcome of the assay. Citrated normal human plasma and inhibitor were incubated together. The sample (plasma and inhibitor) and activator (Instrumentation Laboratories Ellagic acid/Phospholipid mix Test Reagent) were automatically pipetted and incubated together for 2 min at 37° C., then CaCl2 was added and clotting time determined by means of optical assessment. The total incubation time of inhibitor with plasma was ca. 3 min before addition of activator, and 5 min before addition of CaCl2. Final concentrations were 0.57 nM to 5.7 μM ecotin, 15.3 ug protein/ml 293 cell membranes, 8.3 uM ellagic acid, 8.3 mM CaCl2, and 33.3% plasma in a total volume of 162 μl.

human plasma kallikrein = test: Equilibrium inhibition constant with plasma kallikrein; assay type: biochemical
Description: (§1) Determination of Equilibrium Inhibition Constants Apparent Ki values (Ki *) for the inhibition of the enzymes tested by ecotin and mutants were measured as follows. All reactions were performed at 25° C. Stock solutions of trypsin were quantitated by active site burst titration with MUGB as previously described (Jameson, G. W. et al., Biochem. J. 131:107-117 [1973]) using a Fluoroskan II plate reader at excitation wavelength of 355 nm and emission wavelength of 460 nm. Data was collected on a Macintosh SE20 using either Delta Soft II Fl v3.31 software (BioMetallics). Active site titrated trypsin was then used to quantitate ecotin active sites using BAPA as the substrate; a stoichiometry of 1:1 was assumed (Chung, C. H. et al., supra). Factor Xa, Factor XIIa, plasma kallikrein, or HLE were then quantitated by active site titration using ecotin as a standard, again assuming 1:1 stoichiometry. In addition, the concentration of HLE was quantitated by methods previously described using a calibrated stock of α1 -proteinase inhibitor to titrate the HLE active sites (Beatty, K. et al., J. Biol. Chem. 255:3931-3934 [1980]); the same HLE active site concentration was determined using both ecotin and α1 -proteinase inhibitor. […]

[1] = molecular target: HLE (human leukocyte elastase); test: Equilibrium inhibition constant with HLE; assay type: biochemical; settings: apparent value, 0.08 mM MeOSuc-Ala-Ala-Pro-Val-MCA
Description: as §1

human FXIIa = test: Equilibrium inhibition constant with Factor XIIa; assay type: biochemical; settings: apparent value, 0.5 mM S2302
Description: as §1

FXa = FXa association rate constant; assay type: biochemical, human
Description: Determination of FXa association rate constants The association rate of ecotin with FXa was determined as follows. At reference time zero, ecotin (7 nM final concentration) was added to FXa (5 nM final concentration) and TNCT buffer in a total volume of 3.0 ml. Immediately thereafter, 150 μl aliquots were removed at intervals over a period of 10 min and added to microtiter wells containing 50 μl 5 mM Spectrozyme fXa. The absorbance of the wells was monitored at 405 nm. Initial rates were determined for each well using the initial linear portion of each data set. The concentration of free enzyme versus time was plotted and the curves fitted to equation 4; values for kon were determined by nonlinear regression analysis.
The rate of association of a reversible inhibitor with enzyme is given by equation 2: [formula] Since measurements were made during the initial phase of the reaction, where dissociation of the E·I complex is negligible, the second term of equation 2 can be ignored. Therefore the rate of association is given by equation 3: [formula] […] The association rate constant for ecotin with FXa was determined by measuring free enzyme as a function of time and fitting the data to equation (4) by nonlinear regression analysis. A value for kon =(1.35±0.08)×10^6 M^-1 s^-1 was calculated for ecotin with FXa (FIG. 4A); kon values for ecotin mutants are shown in Table I.

For “Ecotin: E. coli periplasmic protein having the 142 amino acid residue sequence reported by McGrath et al.; recombinant, P1 Met84”, the “concentration causing 10-fold prolongation of clotting time, APTT” value (normal human plasma) was roughly 0.3 μM, the “concentration causing 10-fold prolongation of clotting time, APTT” value (normal human plasma; listed as Wild type ecotin) was ~ 0.3 μM and the Ki (human plasma kallikrein; plasma kallikrein=1.3 nM) was 0.175 ± 0.02 nM. The Ki (human plasma kallikrein; plasma kallikrein=4.3 nM) was 0.151 ± 0.02 nM, the Ki [1] was 0.05 nM and the Ki (human FXIIa) was 0.124 ± 0.026 nM. For the same substance, the “time for complete inhibition of FXa” value (FXa; ca. 500 nM ecotin, maximum FXa concentration in blood ca. 200 nM) was “approximately 7.4 sec” and the “association rate constant (kon) with FXa” value (FXa; full power of ten printed) was 1.35e+06 M⁻¹ s⁻¹.
